Read-outs that look alike come from different tables or passages of the source.
Biological target: T1, mu opiate receptor (MOR) (Rattus norvegicus, UniProt P33535)
T1 construct: from tissue; host or cells: striatum (membrane preparation)
Type: biochemical

[1] = 0.1 μM compound, striatal membranes, Series C-2
[2] = 1 μM compound + 1 μM β-FNA (selective MOR antagonist), Series C-2
[3] = 1 μM compound, striatal membranes, Series C-2
[4] = [35S]GTPγS binding to Gαo in striatal membranes, compound 0.1 μM
[5] = [35S]GTPγS binding to Gαo in striatal membranes, compound 1 μM
[6] = [35S]GTPγS binding to Gαo in striatal membranes, compound 1 μM plus 1 μM β-funaltrexamine (MOR antagonist)

T1 sequence (P33535 whole entry): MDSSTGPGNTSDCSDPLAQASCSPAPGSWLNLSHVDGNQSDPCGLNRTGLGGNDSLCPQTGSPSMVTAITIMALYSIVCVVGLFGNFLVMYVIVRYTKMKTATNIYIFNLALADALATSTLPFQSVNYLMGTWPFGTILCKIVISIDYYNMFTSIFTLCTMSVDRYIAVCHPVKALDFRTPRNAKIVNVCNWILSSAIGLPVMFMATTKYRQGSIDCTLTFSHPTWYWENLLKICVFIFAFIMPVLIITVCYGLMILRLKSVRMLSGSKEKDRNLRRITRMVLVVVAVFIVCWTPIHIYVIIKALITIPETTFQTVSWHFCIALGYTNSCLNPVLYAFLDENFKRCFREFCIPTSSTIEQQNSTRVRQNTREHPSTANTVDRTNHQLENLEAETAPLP

Row | Compound | Concentration of FLNA-Binding Compound as Agonist 0.1 μM | Concentration of FLNA-Binding Compound as Agonist 1 μM | Concentration of FLNA-Binding Compound as Agonist 1 μM + BFNA | [35S]GTPγS binding, FLNA-Binding Compound as Agonist at 0.1 μM | [35S]GTPγS binding, FLNA-Binding Compound as Agonist at 1 μM | [35S]GTPγS binding, FLNA-Binding Compound as Agonist at 1 μM + BFNA | % DAMGO (0.1 μM) | % DAMGO (1 μM) | % DAMGO + BFNA | [35S]GTPγS binding, FLNA-Binding Compound as Agonist at 0.1 μM [1] | [35S]GTPγS binding, FLNA-Binding Compound as Agonist at 1 μM + BFNA [2] | [35S]GTPγS binding, FLNA-Binding Compound as Agonist at 1 μM [3] | Concentration of FLNA-Binding Compound as Agonist 0.1 μM [4] | Concentration of FLNA-Binding Compound as Agonist 1 μM [5] | Concentration of FLNA-Binding Compound as Agonist 1 μM + BFNA [6]
1 | C[C@@H](NC(=O)[C@@H](N)Cc1ccc(O)cc1)C(=O)NCC(=O)N(C)[C@@H](Cc1ccccc1)C(=O)NCCO [DAMGO, reference compound] | 168.5% | 266.1% | 53.2% | 168.5% | 266.1% | 53.2% |  |  |  |  |  |  |  |  | 
2 | C=CCN1CCC2(CC1)OCCN2S(=O)(=O)c1ccc(OC)cc1 [Compound C0091M] |  |  |  |  |  |  | 118.1% | 108.5% | 367.3% | 207.9% | 80.8% | 274.4% |  |  | 
3 | O=S(=O)(c1ccc(F)cc1)N1CCC2(CC1)OCCN2S(=O)(=O)c1ccc(F)cc1 [Compound C0029] |  |  |  |  |  |  | 91.2% | 113.1% | 37.8% |  |  |  | 175.4% | 308.8% | 16.6%
4 | CC(=O)c1ccc(S(=O)(=O)N2C(Cc3c[nH]cn3)C(=O)NC23CCNCC3)cc1 (stereo not drawn) [Compound C0119M] |  |  |  | 105.7% | 167.8% | 35.1% | 71.9% | 83.0% | 89.3% |  |  |  |  |  | 
5 | CC(=O)c1ccc(S(=O)(=O)N2CCC3(CC2)OCCN3S(=O)(=O)c2ccc(C(C)=O)cc2)cc1 [Compound C0011] | 217.0% | 305.0% | 19.0% | 217.0% | 305.0% | 19.0% | 126.8% | 114.3% | 36.5% |  |  |  |  |  | 
6 | CN1CCC2(CC1)NCC(=O)N2Cc1ccccc1 [Compound C0105M] |  |  |  |  |  |  | 104.7% | 88.8% | 150.7% | 198.1% | 73.1% | 220.3% |  |  | 
7 | CC1CCC(C(C)C)C(OCC(O)CN2CCC(=O)CC2)C1 (stereo not drawn) [Compound A0060] |  |  |  |  |  |  | 63.9% | 68.6% | 35.8% |  |  |  | 99.7% | 158.2% | 14.3%
8 | CC1CCC(C(C)C)C(OCC(O)CN2CCCN(C)CC2)C1 (stereo not drawn) [Compound A0010] |  |  |  |  |  |  | 161.9% | 119.5% | 365.3% |  |  |  | 277.2% | 319.0% | 190.3%
9 | O=S(=O)(c1cccc(OC(F)(F)F)c1)N1CCC2(CC1)OCCN2S(=O)(=O)c1cccc(OC(F)(F)F)c1 [Compound C0005] |  |  |  |  |  |  | 105.4% | 85.1% | 319.4% |  |  |  | 180.4% | 227.2% | 166.4%
10 | COc1cccc(OC)c1CC(=O)CC1c2c(cc3c(c2OC)OCO3)CC[N+]1(C)C (stereo not drawn) [Compound B0036] |  |  |  |  |  |  | 39.2% | 52.1% | 199.7% |  |  |  | 61.4% | 120.6% | 65.1%
11 | CC1CN(CC(O)COc2ccc(Cl)cc2)CC(C)O1 (stereo not drawn) [Compound A0047] |  |  |  |  |  |  | 118.8% | 92.4% | 157.6% |  |  |  | 233.0% | 255.0% | 116.5%
12 | CC1CCC(C(C)C)C(OCC(O)Cn2cccc2)C1 (stereo not drawn) [Compound A0038] |  |  |  |  |  |  | 90.1% | 85.0% | 144.8% |  |  |  | 176.7% | 234.5% | 107.0%
13 | CC(=O)c1ccc(C(=O)N2CCOC23CCN(S(=O)(=O)c2ccc(C(C)=O)cc2)CC3)cc1 [Compound C0053] |  |  |  |  |  |  | 71.7% | 67.5% | 211.6% |  |  |  | 104.0% | 157.2% | 93.1%
14 | CC1CCC(C(C)C)C(OCC(O)CN2CCN(CCN3CCCCC3)CC2)C1 (stereo not drawn) [Compound A0031] |  |  |  |  |  |  | 100.9% | 116.8% | 573.8% |  |  |  | 178.2% | 297.0% | 150.9%
15 | COc1ccc(N2CCN(CC(O)COC3CC(C)CCC3C(C)C)CC2)c(OC)c1 (stereo not drawn) [Compound A0012] |  |  |  |  |  |  | 99.9% | 80.7% | 461.9% |  |  |  | 149.3% | 185.7% | 122.4%
16 | COc1ccc(S(=O)(=O)N2CCC3(CC2)NCCC(=O)N3)cc1 [Compound C0142M] |  |  |  |  |  |  | 97.8% | 95.2% | 251.1% | 143.7% | 98.7% | 192.5% |  |  | 
17 | CCCCc1ccc(S(=O)(=O)N2CCC3(CC2)OCCN3S(=O)(=O)c2ccc(CCCC)cc2)cc1 [Compound C0030] |  |  |  |  |  |  | 96.0% | 98.0% | 291.4% |  |  |  | 150.3% | 226.8% | 95.0%
18 | OC(COc1ccc(Br)c(F)c1)CN1CCSCC1 (stereo not drawn) [Compound A0059] | 99.2% | 129.9% | 85.7% |  |  |  | 63.5% | 56.4% | 214.8% |  |  |  |  |  | 
19 | O=S(=O)(c1ccc(Br)c(C(F)(F)F)c1)N1CCC2(CC1)OCCN2S(=O)(=O)c1ccc(Br)c(C(F)(F)F)c1 [Compound C0077] |  |  |  |  |  |  | 109.5% | 104.9% | 621.4% |  |  |  | 192.7% | 265.4% | 136.7%
20 | CC1CCC(C(C)C)C(OCC(O)CN2CC(C)OC(C)C2)C1 (stereo not drawn) [Compound A0032-1] |  |  |  |  |  |  | 95.5% | 117.6% | 303.8% |  |  |  | 187.4% | 324.5% | 224.5%
21 | CCc1ccc(S(=O)(=O)N2CCOC23CCN(CC2CC2)CC3)cc1 [Compound C0135M] |  |  |  | 161.3% | 310.1% | 113.3% | 85.3% | 124.9% | 233.6% |  |  |  |  |  | 
22 | COc1c2c(cc3c1C(CC(=O)Cc1ccccc1F)[N+](C)(C)CC3)OCO2 (stereo not drawn) [Compound B0055] |  |  |  |  |  |  | 91.8% | 133.1% | 446.8% |  |  |  | 162.1% | 338.5% | 117.5%
23 | COc1ccc(OCC(O)CN2CCOc3ccccc32)cc1 (stereo not drawn) [Compound A0076] |  |  |  |  |  |  | 46.4% | 78.6% | 119.4% |  |  |  | 79.8% | 172.6% | 41.2%
24 | COc1ccc(C(=O)CC2c3c(cc4c(c3OC)OCO4)CC[N+]2(C)C)cc1OC (stereo not drawn) [Compound B0026] |  |  |  |  |  |  | 88.8% | 87.4% | 55.3% |  |  |  | 152.0% | 233.3% | 28.8%
25 | CC1CN(CC(O)COc2cccc(F)c2)CC(C)O1 (stereo not drawn) [Compound A0049] |  |  |  |  |  |  | 118.4% | 134.2% | 144.9% |  |  |  | 232.3% | 370.3% | 107.1%
26 | O=S(=O)(c1ccc(Br)cc1Br)N1CCC2(CC1)OCCN2S(=O)(=O)c1ccc(Br)cc1Br [Compound C0070] |  |  |  |  |  |  | 96.2% | 95.9% | 331.0% |  |  |  | 165.6% | 210.8% | 114.2%
27 | CC(=O)c1ccc(S(=O)(=O)N2CCC3(CC2)NC(=O)CN3Cc2ccccc2)cc1 [Compound C0085M] |  |  |  |  |  |  | 105.5% | 78.4% | 112.6% |  |  |  | 211.6% | 246.2% | 43.7%

From US10760052B2, “Method of inhibiting tau phosphorylation” (priority 2012, dated 2020)
